Results on 1 molecule are retold here after article PMC8966664 (Frontiers in Pharmacology, 2022).

SMILES strings stand for the structures.

In series [1] the test system is sinusoidal endothelial cells. Description: Immunofluorescence of RECA-1 in liver sections. Type of series: in vivo, Sprague Dawley rats. Conditions: rats; EX or GA treated groups + RTS. Here is the method:
(§1) EX and GA were dissolved in distilled water at 37°C for oral administration with the dosage of EX and GA as 500 mg/kg and 50 mg/kg. […] RTS was given following the last dose of distilled water/GA/EX. Detailed dosage regimens are described in Supplementary Figure S2. All rats were sacrificed at 48 h after the last dosing. Serum and liver samples were collected and stored at −80°C until use.
The largest lobe of the rat liver was sliced, cold-embedded in Tissue-Tek OCT compound, and processed for immunohistochemistry according to the Abcam IHC frozen sections staining protocol. The tissue slices were incubated with rat endothelial cell antigen (RECA)-1 antibody and Alexa Fluor 488-conjugated goat anti-mouse IgG, and then stained with DAPI and observed under Olympus FluoViewTM FV1000 confocal microscope.

In another series the test system is RTS-induced liver injury. Description: Serum ALT, hepatic MDA and GSH in RTS-induced liver injury. Type of series: in vivo, Sprague Dawley rats. The following applies: rats. As for the experimental part:
as §1
The serum alanine transaminase (ALT) level was measured by a kit obtained from Sigma-Aldrich Chemical Co. (St. Louis, MO, United States). The total bilirubin level was measured by the QuantiChromTM Bilirubin Assay kit according to the manufacturer’s instructions (BioAssay Systems, Hayward, CA, United States). Hepatic malondialdehyde (MDA) level was measured using a kit obtained from Nanjing Jiancheng Bioengineering Institute (Nanjing, China). Total GSH content in the liver was measured following a standard spectrophotometric method using Ellaman’s reagent.

Where [2] appears, read: substance alone (EX/GA single and multiple administrations; RTS single dose), 48 h.

In the case of `CC1(C)[C@@H](O)CC[C@]2(C)[C@H]3C(=O)C=C4[C@@H]5C[C@@](C)(C(=O)O)CC[C@]5(C)CC[C@@]4(C)[C@]3(C)CC[C@@H]12` [GA, 18β-glycyrrhetinic acid], the “RTS-induced damage of sinusoids (RECA-1 immunofluorescence)” value in series [1] is “significantly less”. In addition, the “RTS-induced hepatic GSH elevation” value in the series with RTS-induced liver injury (EX or GA treatment + RTS, especially multiple dosage regimens) is “attenuated”. In the series with RTS-induced liver injury (multiple doses + RTS 40 mg/kg), the “RTS-induced hepatic MDA elevation” value is “significantly attenuated” and the “RTS-induced serum ALT elevation” value was “significantly attenuated”. Besides, in the series on RTS-induced liver injury (single dose + RTS 40 mg/kg), the “RTS-induced hepatic MDA elevation” value is “significantly reduced” and the “RTS-induced serum ALT elevation” value is on record as “significantly reduced”. Also, in the series on RTS-induced liver injury (setting [2]), the “hepatic MDA level compared with vehicle” value is on record as “unchanged” and the “serum ALT level compared with vehicle” value is recorded as “unchanged”.
